The text below walks through data of patent US20240043860A1, “NOVEL HYDROXYPHENYLPYRUVATE DIOXYGENASE POLYPEPTIDES AND METHODS OF USE THEREOF” (Syngenta Crop Protection AG, priority 2020, published 2024).

Values joined by “and” are separate entries in the source; they are usually repeats but may differ in a detail not shown here. Equal entries are not always repeated. Where two headings read alike, the source gives them in different places.

The target in assay [1] is HPPD variant AVESA V351 (SEQ ID NO: 50) (Avena sativa, UniProt A0ACD5V6K6, A327R/G411A/I340E/L359Y/R214G/S304T/V218I). Description: biochemical. It counts as biochemical. How it is done: (§1) 25 ul of the overnight cultures were inoculated into fresh 96-deepwell block containing 1 ml Formedium Autoinduction Media (AIM). The AIM cultures were grown for 3h at 37° C. (900rpm) and then transferred to 20° C. overnight (900rpm) to allow protein expression. The overnight cultures were centrifuged and 500 ul of Cellytic B (Sigma Aldrich) was added to resuspend the cell pellets. The coupled HGO assay (Siehl et al, 2014) is used to generate IC50 values for the HPPD variants of interest.
HPPD variant AVESA V351 (SEQ ID NO: 50), sequence (A0ACD5V6K6 entry or part of it R214G/V218I/S304T/A327R/I340E/L359Y/G411A): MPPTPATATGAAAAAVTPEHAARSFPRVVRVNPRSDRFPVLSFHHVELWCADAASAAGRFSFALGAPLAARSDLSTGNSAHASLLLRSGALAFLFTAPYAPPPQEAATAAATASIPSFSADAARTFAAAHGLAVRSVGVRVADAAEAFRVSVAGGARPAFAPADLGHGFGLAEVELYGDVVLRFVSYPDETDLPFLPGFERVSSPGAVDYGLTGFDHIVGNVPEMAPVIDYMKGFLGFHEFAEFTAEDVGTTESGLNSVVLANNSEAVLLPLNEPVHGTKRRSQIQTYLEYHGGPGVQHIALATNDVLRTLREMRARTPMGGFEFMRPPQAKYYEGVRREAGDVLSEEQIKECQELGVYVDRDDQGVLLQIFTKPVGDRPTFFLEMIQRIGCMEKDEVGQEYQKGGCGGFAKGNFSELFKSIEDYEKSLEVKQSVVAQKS
(§2) E. coli BL21 (DE3) cells were transformed with a pET24a vector containing a C-terminally his-tagged Arabidopsis HGO gene, grown and induced overnight as described for the HPPD variants above. The cell pellet was resuspended in phosphate buffered saline at pH 7.4 containing 10% Glycerol, 1mm Tris[2-carboxyethyl] phosphine-HCl (TCEP) plus 30 mM Imidazole and lysed using lysozyme/benzonase. The extract was clarified by low speed centrifugation and purified in the same buffer down a 1 ml His Gravitrap column. The bound HGO was eluted in 0.25M imidazole and the fractions pooled and beaded into liquid nitrogen. All procedures apart from the centrifugation and beading steps were carried out under a nitrogen atmosphere.
(§3) The coupled HGO assay is carried out by adding 10 ul of HPPD extract to a 96-well plate and then adding 40 ul of reaction buffer (50 mM Bis Tris Propane, pH7.0, 25 mM sodium-L-ascorbate, 400μM mercaptoethanol, 50 μM Fe(II)SO4). The plates are left to incubate for 5 minutes on ice. […] 200 ul of HPP/HGO (197 μM hydroxyphenylpyruvic acid, 16 μl/ml Homogentisic Acid Oxidase in reaction buffer as described above) buffer is then added to the well and the reaction is regularly monitored (e.g. every 30 seconds-5 minutes) for absorbance at 330 nm for a given time period (e.g., for between 15-60 minutes). The data can then be used to calculate the IC50 value for each HPPD variant of interest.

The target of assay [2] is HPPD variant AVESA V306 (SEQ ID NO: 32) (Avena sativa, UniProt A0ACD5V6K6, A327R/I340E/L359M/P271N/R214G/V218I). Description: biochemical. It counts as biochemical. How it is done:
as §1, §2, §3

In assay [3] the target is HPPD variant AVESA V358 (SEQ ID NO: 56) (Avena sativa, UniProt A0ACD5V6K6, A327R/I340E/L359M/P271N/R214G/S304T/V218I/V260A). Description: biochemical. It counts as biochemical. How it is done:
as §1, §2, §3

For assay [4], the target named is HPPD variant AVESA V332 (SEQ ID NO: 44) (Avena sativa, UniProt A0ACD5V6K6, A327R/I340E/K404N/L359M/P271N/R214G/V218I/V260A). Description: biochemical. It counts as biochemical. How it is done: as §1, §2, §3
HPPD variant AVESA V332 (SEQ ID NO: 44), sequence (A0ACD5V6K6 entry or part of it R214G/V218I/V260A/P271N/A327R/I340E/L359M/K404N): as the sequence (A0ACD5V6K6 entry or part of it R214G/V218I/S304T/A327R/I340E/L359Y/G411A) above, with V260A, P271N, T304S, Y359M, K404N, A411G counted along it
For assay [5], the target named is HPPD variant AVESA V180 (SEQ ID NO: 124) (Avena sativa, UniProt A0ACD5V6K6, A327R/G411A/I340E/L359M/V218I). Description: biochemical. It counts as biochemical. The procedure: as §1, §2, §3
HPPD variant AVESA V180 (SEQ ID NO: 124), sequence (A0ACD5V6K6 entry or part of it V218I/A327R/I340E/L359M/G411A): as the sequence (A0ACD5V6K6 entry or part of it R214G/V218I/S304T/A327R/I340E/L359Y/G411A) above, with G214R, T304S, Y359M counted along it
Assay [6] has as its target HPPD variant AVESA V162 (SEQ ID NO: 122) (Avena sativa, UniProt A0ACD5V6K6, A327R/I340E/L359M/V218I). Description: biochemical. Type of assay: biochemical. How it is done: as §1, §2, §3
For assay [7], the target named is HPPD variant AVESA V296 (SEQ ID NO: 20) (Avena sativa, UniProt A0ACD5V6K6, A327R/G411A/I340E/L359Y/R214G/V218I). As to the kind of experiment: biochemical. It counts as biochemical. The procedure: as §1, §2, §3
HPPD variant AVESA V296 (SEQ ID NO: 20), sequence (A0ACD5V6K6 entry or part of it R214G/V218I/A327R/I340E/L359Y/G411A): as the sequence (A0ACD5V6K6 entry or part of it R214G/V218I/S304T/A327R/I340E/L359Y/G411A) above, with T304S counted along it
Assay [8] concerns the target HPPD variant AVESA V313 (SEQ ID NO: 38) (Avena sativa, UniProt A0ACD5V6K6, A327R/I340E/L359Y/P271N/R214G/V218I/V260A). As to the kind of experiment: biochemical. Type of assay: biochemical. The procedure: as §1, §2, §3
The test system of another assay is wild-type tobacco plants. As to the kind of experiment: spray test, herbicidal damage scoring. Type of assay: in vivo. As to conditions: Table 4.1, 7 days after treatment, 100=complete death, 0=no damage, one value per plant/event. The procedure:
Once rooted, plantlets are transferred from agar and potted into 50% peat, 50% John Innes Soil No. 3 or, for example, MetroMix® 380 soil (Sun Gro Horticulture, Bellevue, WA) with slow-release fertilizer in 3 inch round or 4 inch square pots and left regularly watered to establish for 8-12d in the glass house. Glass house conditions are about 24-27° C. day; 18-21° C. night and approximately a 14h (or longer in UK summer) photoperiod.
About 20-30 TO events are produced for a number of HPPD variant genes.
Tables 4.1-4.9 show the herbicidal damage scoring on transgenic tobacco plants 7 days after treatment. A score of 100=complete death and 0=no damage observed.

The test system of assay [9] is HPPD variant AVESA V349 (SEQ ID NO: 47). As to the kind of experiment: biochemical. Type of assay: biochemical, Avena sativa. How it is done: as §1, §2, §3
Assay [10] concerns the target HPPD variant AVESA V349 (SEQ ID NO: 47) (Avena sativa, UniProt A0ACD5V6K6, A327R/I340E/L359M/P271N/S304T/V218I). As to the kind of experiment: biochemical. Type of assay: biochemical. How it is done:
as §1, §2, §3

Assay [11] concerns the target HPPD variant AVESA V208 (SEQ ID NO: 14) (Avena sativa, UniProt A0ACD5V6K6, A327R/I340E/L359M/P271N/V218I). Description: biochemical. Type of assay: biochemical. How it is done:
as §1, §2, §3

Assay [12] has as its target HPPD variant AVESA V357 (SEQ ID NO: 53) (Avena sativa, UniProt A0ACD5V6K6, A327R/I340E/L359M/P271N/R214G/S304T/V218I). Description: biochemical. It counts as biochemical. The procedure: as §1, §2, §3
In assay [13] the test system is HPPD variant AVESA V357 (SEQ ID NO: 53). Description: biochemical. It counts as biochemical, Avena sativa. How it is done: as §1, §2, §3
[14] abbreviates: AVESA V351, SEQ ID NO: 50, read-out: IC50.
Where [15] appears, read: AVESA V306, SEQ ID NO: 32, read-out: IC50.
Where [16] appears, read: AVESA V358, SEQ ID NO: 56, read-out: IC50.
Where [17] appears, read: AVESA V332, SEQ ID NO: 44, read-out: IC50.
The mark [18] stands for this setting: AVESA V180, SEQ ID NO: 124, read-out: IC50.
Where [19] appears, read: AVESA V162, SEQ ID NO: 122, read-out: IC50.
Setting [20] is: AVESA V296, SEQ ID NO: 20, read-out: IC50.
Where [21] appears, read: AVESA V313, SEQ ID NO: 38, read-out: IC50.
Where [22] appears, read: AVESA V349, SEQ ID NO: 47, read-out: IC50.
Setting [23] is: AVESA V208, SEQ ID NO: 14, read-out: IC50.
Setting [24] is: AVESA V357, SEQ ID NO: 53, read-out: IC50.

HPPD variant AVESA V313 (SEQ ID NO: 38), sequence (A0ACD5V6K6 entry or part of it R214G/V218I/V260A/P271N/A327R/I340E/L359Y): as the sequence (A0ACD5V6K6 entry or part of it R214G/V218I/S304T/A327R/I340E/L359Y/G411A) above, with V260A, P271N, T304S, A411G counted along it
HPPD variant AVESA V358 (SEQ ID NO: 56), sequence (A0ACD5V6K6 entry or part of it R214G/V218I/V260A/P271N/S304T/A327R/I340E/L359M): as the sequence (A0ACD5V6K6 entry or part of it R214G/V218I/S304T/A327R/I340E/L359Y/G411A) above, with V260A, P271N, Y359M, A411G counted along it
HPPD variant AVESA V349 (SEQ ID NO: 47) (Avena sativa, UniProt A0ACD5V6K6, A327R/I340E/L359M/P271N/S304T/V218I), sequence (A0ACD5V6K6 entry or part of it V218I/P271N/S304T/A327R/I340E/L359M): as the sequence (A0ACD5V6K6 entry or part of it R214G/V218I/S304T/A327R/I340E/L359Y/G411A) above, with G214R, P271N, Y359M, A411G counted along it
HPPD variant AVESA V162 (SEQ ID NO: 122), sequence (A0ACD5V6K6 entry or part of it V218I/A327R/I340E/L359M): as the sequence (A0ACD5V6K6 entry or part of it R214G/V218I/S304T/A327R/I340E/L359Y/G411A) above, with G214R, T304S, Y359M, A411G counted along it
HPPD variant AVESA V208 (SEQ ID NO: 14), sequence (A0ACD5V6K6 entry or part of it V218I/P271N/A327R/I340E/L359M): as the sequence (A0ACD5V6K6 entry or part of it R214G/V218I/S304T/A327R/I340E/L359Y/G411A) above, with G214R, P271N, T304S, Y359M, A411G counted along it
HPPD variant AVESA V357 (SEQ ID NO: 53) (Avena sativa, UniProt A0ACD5V6K6, A327R/I340E/L359M/P271N/R214G/S304T/V218I), sequence (A0ACD5V6K6 entry or part of it R214G/V218I/P271N/S304T/A327R/I340E/L359M): as the sequence (A0ACD5V6K6 entry or part of it R214G/V218I/S304T/A327R/I340E/L359Y/G411A) above, with P271N, Y359M, A411G counted along it
HPPD variant AVESA V306 (SEQ ID NO: 32), sequence (A0ACD5V6K6 entry or part of it R214G/V218I/P271N/A327R/I340E/L359M): as the sequence (A0ACD5V6K6 entry or part of it R214G/V218I/S304T/A327R/I340E/L359Y/G411A) above, with P271N, T304S, Y359M, A411G counted along it

On to `Cn1nnnc1NC(=O)c1ccc(C(F)(F)F)nc1-n1cncn1` [Herbicide D, N-(1-methyltetrazol-5-yl)-2-(1,2,4-triazol-1-yl)-6-(trifluoromethyl)pyridine-3-carboxamide], for which the IC50 in assay [1] is more than 500 µM; in assay [2], 129 µM; in assay [3] it was 177 µM; in assay [4], 134 µM; in [5], more than 500 µM; in assay [6] it was 6.73 µM. In addition, the IC50 in assay [7] was more than 500 µM; in [8] it was 205 µM; in assay [10], 197 µM; in [11], 182 µM; in [12] it was 243 µM. For the same compound, in the assay on wild-type tobacco plants, the “herbicidal damage scoring, Herbicide D (2000 g/ha)” value is 99 and 96 and 97 and 95. Besides, the “IC50 fold improvement compared to SEQ ID NO: 122” value in [9] stood at 29 ×. Besides, the “IC50 fold improvement over SEQ ID NO: 122” value in assay [13] is reported as 36 ×.
For `COc1ccc(-n2nc(C)cc(C(=O)C3C(=O)CCCC3=O)c2=O)cc1OC` [Herbicide C, dioxopyritrione], the IC50 was 14.3 µM in [1] (setting [14]); more than 50 µM in assay [2] (setting [15]); less than 0.19 µM in assay [3] (setting [16]); more than 50 µM in assay [4] (setting [17]); 0.61 µM in [5] (setting [18]); 0.25 µM in assay [6] (setting [19]). Moreover, the IC50 in [7] (setting [20]) is 1.3 µM; in assay [8] (setting [21]) it was approximately 0.2 µM; in assay [10] (setting [22]) it was more than 50 µM; in assay [11] (setting [23]), more than 50 µM; in [12] (setting [24]) it was 0.28 µM. In the assay on wild-type tobacco plants, the “herbicidal damage scoring, Herbicide C 100 g/ha” value was 95 and 99 and 96. Also, the “herbicidal damage scoring, Herbicide C (200 g/ha)” value in the assay with wild-type tobacco plants is 95 and 97 and 98 and 96. For the same compound, the “IC50 fold improvement compared to SEQ ID NO: 122” value in [9] is more than 200 ×. The “IC50 fold improvement over SEQ ID NO: 122” value in assay [13] is “no improvement”.
Take bicyclopyrone: the IC50 in assay [1] (setting [14]) is more than 500 µM; in assay [2] (setting [15]) it was 10.2 µM; in assay [3] (setting [16]), less than 0.39 µM; in assay [4] (setting [17]), 102 µM; in assay [5] (setting [18]), 55.6 µM; in assay [6] (setting [19]), 0.38 µM. The IC50 in assay [7] (setting [20]) is more than 500 µM; in assay [8] (setting [21]), less than 0.39 µM; in assay [10] (setting [22]), 10.2 µM; in assay [11] (setting [23]), 39.3 µM; in assay [12] (setting [24]), 42.1 µM. The “herbicidal damage scoring, Bicyclopyrone (800 g/ha)” value in the assay on wild-type tobacco plants amounted to 95. In addition, the “IC50 fold improvement compared to SEQ ID NO: 122” value in assay [9] was found to be 27 ×. In addition, in assay [13], the “IC50 fold improvement over SEQ ID NO: 122” value is recorded as 110 ×.
